Data from patent US20050009809A1, “Acridine derivatives and their use as medicaments” (priority 2003, published 2005).
Values after ≈ are worked out from the molar mass of the structure shown. Read-outs that look alike come from different tables or passages of the source.

Tests used:
[1] = tested on: ovarian adenocarcinoma cell line SKOV-3; experiment: XTT proliferation assay, SKOV-3; type: cell-based, human; details: Homo sapiens, read-out: XTT proliferation assay, EC50, SKOV3
Excerpt: (§1) The substances according to the invention were investigated for their antiproliferative activity in a proliferation test on established tumor cell lines. The test used determines the cellular dehydrogenase activity and makes possible a determination of the cell vitality and indirectly the cell count. The cell lines used are the human cervical carcinoma cell line KB/HeLa (ATCC CCL17), the ovarian adenocarcinoma cell line SKOV-3 (ATCC HTB77), the human glioblastoma cell line […] (NCI 503138) and the lung carcinoma cell line NCI-H460 (NCI 503473).
(§2) The adherently growing tumor cell lines KB/HeLa, SKOV-3, SF-268 and NCI-H460 were cultured under standard conditions in a fumigation incubator at 37° C., 5% CO2 and 95% atmospheric humidity. On experimental day 1, the cells are detached using trypsin/EDTA and pelleted by centrifugation. Subsequently, the cell pellet is resuspended in the respective culture medium at the corresponding cell count and reacted in a 96-well microtiter plate. The plates are then cultured overnight in the fumigation incubator. The test substances are prepared as 1 mg/ml stock solutions in DMSO and diluted to the appropriate concentrations on experimental day 2 using culture medium. The substances in culture medium are then added to the cells and incubated in the fumigation incubator for 45 h. As a control, cells which are not treated with test substance are used. For the XTT assay, 1 mg/ml of XTT (sodium 3′-[1-(phenylaminocarbonyl)-3,4-tetrazolium]-bis(4-methoxy-6-nitro)benzenesulfonic acid) is dissolved in RPMI-1640 medium without Phenol Red. Additionally, a 0.383 mg/ml PMS (N-methyldibenzopyrazine methylsulfate) solution in phosphate-buffered saline solution (PBS) is prepared. On experimental day 4, 75 μl/well of XTT-PMS mixture is pipetted onto the cell plates which in the meantime have been incubated with the test substances for 45 h. For this, shortly before use, the XTT solution is mixed with the PMS solution in the ratio 50:1 (vol:vol). The cell plates are then incubated in the fumigation incubator for a further 3 h and the optical density (OD490 nm) is determined in a photometer. By means of the OD490 nm determined, the percentage inhibition is calculated relative to the control and plotted semilogarithmically in the form of a concentration-action curve. The EC50 is calculated by means of a regression analysis from the concentration-action curve using the program Graphpad Prism.

[2] = tested on: bovine tubulin with 30% associated proteins (MAPs); experiment: Tubulin polymerization assay; type: biochemical; details: tubulin with 30% MAPs, average of two independent experiments
Description: The compounds according to the invention were tested for inhibition of the polymerization of bovine tubulin in an in-vitro test. In this test, tubulin purified by cycles of polymerization and depolymerization is employed, which is polymerized by addition of GTP and warming. In Table 2, the inhibition or EC50 values of the inhibition of polymerization of tubulin with 30% associated proteins (MAPs) are indicated.
The assay is carried out based on the method of Bollag et al. Lyophilized bovine tubulin (cytoskeleton, ML113 tubulin 30% MAPs) is dissolved in a concentration of 2 mg/ml (ML113 in 80 mM PIPES, 0.5 mM EGTA, 2 mM MgCl2, pH 6.9, 1 mM GTP) or 5 mg/ml (TL238 in 80 mM PIPES, 1 mM EGTA, 0.5 mM MgCl2, 20% (v:v) glycerol pH 6.9, 1 mM GTP). The test substances are diluted in 10% DMSO (v:v) and 5 μl of the dilutions are transferred to a 96-well microtiter plate (Nunc, half area plate). After addition of 45 μl of the tubulin solution, the polymerization is determined at 340 nm in a Spectramax 190 microtiter plate reader (Molecular Devices) by means of a kinetics program at 30 sec intervals over a period of 20 min. The resulting area under curve values are used for the calculation of the inhibition with respect to the untreated control. The controls are untreated cells (±induction). Induction was carried out using 3 μM of muristerone A. On day 1, the cells are sown (±muristerone A) and incubated at 37° C. for 24 h. On day 2, the test substance is added (control DMSO) and incubation at 37° C. is continued further 45 h, after which a standard XTT assay is carried out.

[3] = tested on: human cervical carcinoma cell line KB/HeLa; experiment: XTT proliferation assay, KB/HeLa; type: cell-based; details: Homo sapiens, read-out: XTT proliferation assay, EC50, KB/Hela
Excerpt: as §1, §2

[4] = tested on: lung carcinoma cell line NCI-H460; experiment: XTT proliferation assay, NCI-H460; type: cell-based, human; details: Homo sapiens, read-out: XTT proliferation assay, EC50, NCI-H460
Excerpt: as §1, §2

[5] = tested on: human glioblastoma cell line SF-268; experiment: XTT proliferation assay, SF-268; type: cell-based; details: Homo sapiens, read-out: XTT proliferation assay, EC50, SF-268
Excerpt: as §1, §2

physchem = details: water, thermodynamic from solid
Description: (§3) The saturation solubility in water is determined as described below. For incipient dissolution of the substances and to improve wetting of the samples, at most 1% of DMSO is added. To check the content, an HPLC-UV method was used.

[6] = Saturation solubility in water; details: versus comparison substances of WO0208194
Description: as §3

[7] = SK-OV-3, SKOV-3 cells, 45 h incubation
[8] = NCI-H460 cells, 45 h incubation

For `CC(=O)Oc1cccc(N2CCN(C(=O)c3c4ccccc4nc4ccccc34)CC2)c1` [Compound 3, 3-[4-(Acridin-9-ylcarbonyl)piperazin-1-yl]phenyl acetate], the EC50 [1, 7] was 0.011 µg/mL, the “Inhibition of tubulin polymerization in [% INH at 10 μg/ml] using 30% MAPs” value (from here on “Inhibition … [% INH at 10 μg/ml] using 30% MAPs”) [2] was 87 % INH and the “Inhibition of tubulin polymerization using 30% MAPs, EC50” value (from here on “Inhibition … using 30% MAPs, EC50”) [2] was 1.35 µg/mL. It also gave an EC50 ([3]; KB/HeLa cells, 45 h incubation) of 0.013 µg/mL, an EC50 [4, 8] of 0.019 µg/mL and an EC50 ([5]; SF-268 cells, 45 h incubation) of 0.018 µg/mL.
For `O=C(c1c2ccccc2nc2ccccc12)N1CCN(c2cccc(OP(=O)([O-])[O-])c2)CC1.[Na+].[Na+]` [Compound 33, Mono-{3-[4-(acridin-9-ylcarbonyl)piperazin-1-yl]phenyl}phosphate disodium salt], the EC50 ([1]; SK-OV-3, 45 h) was 0.038 µg/mL, the EC50 ([3]; HeLa, 45 h) was 0.013 µg/mL and the EC50 ([4]; NCI-H460, 45 h) was 0.067 µg/mL. The solubility (physchem) was 9090 µg/mL and the EC50 ([5]; SF-268, 45 h) was 0.057 µg/mL.
For `COC(=O)Oc1cccc(N2CCN(C(=O)c3c4ccccc4nc4ccccc34)CC2)c1` [Compound 5, 3-[4-(Acridin-9-ylcarbonyl)piperazin-1-yl]phenyl methyl carbonate], the EC50 [1, 7] was 0.015 µg/mL (≈ 0.034 µM), the “Inhibition … [% INH at 10 μg/ml] using 30% MAPs” value [2] was 94.3 % INH and the “Inhibition … using 30% MAPs, EC50” value [2] was 1.08 µg/mL. The EC50 ([3]; KB/HeLa cells, 45 h incubation) was 0.017 µg/mL (≈ 0.0385 µM), the EC50 [4, 8] was 0.021 µg/mL (≈ 0.0476 µM) and the EC50 ([5]; SF-268 cells, 45 h incubation) was 0.024 µg/mL (≈ 0.0544 µM).
For `CS(=O)(=O)Oc1cccc(N2CCN(C(=O)c3c4ccccc4nc4ccccc34)CC2)c1` [Compound 15, 3-[4-(Acridin-9-ylcarbonyl)piperazin-1-yl]phenyl methanesulfonate], the EC50 [1, 7] was 0.048 µg/mL, the “Inhibition … [% INH at 10 μg/ml] using 30% MAPs” value [2] was 94.8 % INH and the “Inhibition … using 30% MAPs, EC50” value [2] was 4.82 µg/mL. For the same molecule, the EC50 ([3]; KB/HeLa cells, 45 h incubation) was 0.078 µg/mL, the EC50 [4, 8] was 0.079 µg/mL and the EC50 ([5]; SF-268 cells, 45 h incubation) was 0.069 µg/mL.
With `O=C(c1c2ccccc2nc2ccc(O)cc12)N1CCN(c2cccc(O)c2)CC1` [Compound 38, (2-Hydroxyacridin-9-yl)-[4-(3-hydroxyphenyl)piperazin-1-yl]methanone] the EC50 [1, 7] was 0.095 µg/mL (≈ 0.238 µM), the “Inhibition … using 30% MAPs, EC50” value [2] was 4.57 µg/mL and the EC50 ([3]; KB/HeLa cells, 45 h incubation) was 0.125 µg/mL (≈ 0.313 µM). The EC50 [4, 8] was 0.214 µg/mL (≈ 0.536 µM) and the EC50 ([5]; SF-268 cells, 45 h incubation) was 0.137 µg/mL (≈ 0.343 µM).
Work on `O=C(NCCO)Oc1cccc(N2CCN(C(=O)c3c4ccccc4nc4ccccc34)CC2)c1` [Compound 7, 3-[4-(Acridin-9-ylcarbonyl)piperazin-1-yl]phenyl (2-hydroxyethyl)carbamate] yielded an EC50 [1, 7] of 0.019 µg/mL (≈ 0.0404 µM), an EC50 ([3]; KB/HeLa cells, 45 h incubation) of 0.029 µg/mL (≈ 0.0616 µM) and an EC50 [4, 8] of 0.036 µg/mL (≈ 0.0765 µM). For the same molecule, the “Water solubility compared to the comparison substances” value [6] was “greatly improved water solubilities”, the solubility (physchem) was 108 µg/mL (≈ 230 µM) and the EC50 ([5]; SF-268 cells, 45 h incubation) was 0.031 µg/mL (≈ 0.0659 µM).
For `COc1cccc(N2CCN(C(=O)c3c4ccccc4nc4ccc(O)cc34)CC2)c1` [Compound 37, (2-Hydroxyacridin-9-yl)-[4-(3-methoxyphenyl)piperazin-1-yl]methanone], the EC50 [1, 7] was 0.042 µg/mL (≈ 0.102 µM), the “Inhibition … using 30% MAPs, EC50” value [2] was 2.06 µg/mL and the EC50 ([3]; KB/HeLa cells, 45 h incubation) was 0.064 µg/mL (≈ 0.155 µM). The EC50 [4, 8] was 0.067 µg/mL (≈ 0.162 µM) and the EC50 ([5]; SF-268 cells, 45 h incubation) was 0.076 µg/mL (≈ 0.184 µM).
In the case of `CC1(C)OCC(COC(=O)Oc2cccc(N3CCN(C(=O)c4c5ccccc5nc5ccccc45)CC3)c2)O1` (centres unmarked) [Compound 16, 3-[4-(Acridin-9-ylcarbonyl)piperazin-1-yl]phenyl 2,2-dimethyl-[1,3]-dioxolan-4-ylmethyl carbonate], the EC50 [1, 7] is reported as 0.026 µg/mL (≈ 0.048 µM), the EC50 ([3]; KB/HeLa cells, 45 h incubation) is reported as 0.033 µg/mL (≈ 0.0609 µM) and the melting point is reported as 107 to 108 °C. For the same molecule, the EC50 [4, 8] was 0.042 µg/mL (≈ 0.0775 µM) and the EC50 ([5]; SF-268 cells, 45 h incubation) was 0.043 µg/mL (≈ 0.0794 µM).
For `O=C(OCCCl)Oc1cccc(N2CCN(C(=O)c3c4ccccc4nc4ccccc34)CC2)c1` [Compound 6, 3-[4-(Acridin-9-ylcarbonyl)piperazin-1-yl]phenyl 2-chloroethyl carbonate], the EC50 [1, 7] was 0.019 µg/mL (≈ 0.0388 µM), the “Inhibition … [% INH at 10 μg/ml] using 30% MAPs” value [2] was 70 % INH and the EC50 ([3]; KB/HeLa cells, 45 h incubation) was 0.021 µg/mL (≈ 0.0429 µM). For the same molecule, the melting point was 162 to 163 °C, the EC50 [4, 8] was 0.029 µg/mL (≈ 0.0592 µM) and the EC50 ([5]; SF-268 cells, 45 h incubation) was 0.032 µg/mL (≈ 0.0653 µM).
